Test results: patent US9879034B2, “Near-infrared absorption composition, cured film, near-infrared cut filter, solid-state imaging device, infrared sensor, and compound” (FUJIFILM Corporation, priority 2015, dated 2018)

Tests used:
[1] = Solubility of compound to solvent at 25° C.; type: physicochemical; conditions: for Solubility Cyclohexanone / Solubility PGMEA / Solubility Toluene: 25° C.; for Solubility Cyclohexanone / solubility of the compound to each solvent (in words): cyclohexanone; for solubility of the compound to each solvent (in words): PGMEA; for solubility of the compound to each solvent (in words) / Solubility Toluene: toluene; for Solubility PGMEA: propylene glycol monomethyl ether acetate
Procedure: The solubility of each compound to each solvent (cyclohexanone, propylene glycol monomethyl ether acetate (PGMEA), and toluene) at 25° C. was evaluated based on the following standards.
A: The solubility of the compound to the solvent at 25° C. is 2 mass % or greater.

[2] = Maximum absorption wavelength of compound solution (UV-1800); type: physicochemical; set-up: unit: nm; conditions: dissolved in tetrahydrofuran, 1 g/L
Procedure: According to the invention, the value of the maximum absorption wavelength is obtained as follows: a compound represented by Formula (1) is dissolved in tetrahydrofuran to prepare a solution with a concentration of 1 g/L, and an absorption spectrum of the solution obtained by dissolving the compound is measured in a wavelength range of 350 nm to 1,200 nm using UV-1800 manufactured by Shimadzu Corporation.
Each compound was dissolved in tetrahydrofuran to prepare a solution with a concentration of 1 g/L. Next, the absorption spectrum of the solution obtained by dissolving each compound was measured using UV-1800 manufactured by Shimadzu Corporation, and a maximum absorption wavelength (λmax) was measured.

| solubility of the compound to each solvent (in words) [1] | Maximum Absorption Wavelength [2] | SMILES | Solubility Cyclohexanone [1] | Solubility PGMEA [1] | Solubility Toluene [1] |
| --- | --- | --- | --- | --- | --- |
|  | 828 | CCCCCCCCCCOc1ccccc1B1N=c2/c(=C3\C(=O)C(c4ccc5cccc6c5c4NB(c4ccccc4OCCCCCCCCCC)N6)=C3O)ccc3cccc(c23)N1 [SQ-6] | B (The solubility of the compound to the solvent at 25 °C is 1 mass % to less than 2 mass %.) | B (The solubility of the compound to the solvent at 25 °C is 1 mass % to less than 2 mass %.) | A (The solubility of the compound to the solvent at 25 °C is 2 mass % or greater.) |
|  | 828 | C=CCCCCCCCCOc1ccccc1B1N=c2/c(=C3\C(=O)C(c4ccc5cccc6c5c4NB(c4ccccc4OCCCCCCCCC=C)N6)=C3O)ccc3cccc(c23)N1 [SQ-11] | A (The solubility of the compound to the solvent at 25 °C is 2 mass % or greater.) | B (The solubility of the compound to the solvent at 25 °C is 1 mass % to less than 2 mass %.) | A (The solubility of the compound to the solvent at 25 °C is 2 mass % or greater.) |
|  | 823 | COCCOCCOCCOc1ccc(B2N=c3/c(=C4\C(=O)C(c5ccc6cccc7c6c5NB(c5ccc(OCCOCCOCCOC)cc5)N7)=C4O)ccc4cccc(c34)N2)cc1 [SQ-5] | B (The solubility of the compound to the solvent at 25 °C is 1 mass % to less than 2 mass %.) | A (The solubility of the compound to the solvent at 25 °C is 2 mass % or greater.) | B (The solubility of the compound to the solvent at 25 °C is 1 mass % to less than 2 mass %.) |
|  | 823 | CCCCCCCCCC(CCCCCCCCC)Oc1ccc(B2N=c3/c(=C4\C(=O)C(c5ccc6cccc7c6c5NB(c5ccc(OC(CCCCCCCCC)CCCCCCCCC)cc5)N7)=C4O)ccc4cccc(c34)N2)cc1 [SQ-4] | B (The solubility of the compound to the solvent at 25 °C is 1 mass % to less than 2 mass %.) | B (The solubility of the compound to the solvent at 25 °C is 1 mass % to less than 2 mass %.) | A (The solubility of the compound to the solvent at 25 °C is 2 mass % or greater.) |

Continued, compound first:

| SMILES | solubility of the compound to each solvent (in words) [1] | Maximum Absorption Wavelength [2] | Solubility Cyclohexanone [1] | Solubility PGMEA [1] | Solubility Toluene [1] |
| --- | --- | --- | --- | --- | --- |
| CC(C)(C)c1ccc(B2N=c3/c(=C4\C(=O)C(c5ccc6cccc7c6c5NB(c5ccc(C(C)(C)C)cc5)N7)=C4O)ccc4cccc(c34)N2)cc1 [Compound R-1, reference compound] | did not have sufficient solubility | 827 | D (The solubility of the compound to the solvent at 25 °C is less than 0.5 mass %.) | D (The solubility of the compound to the solvent at 25 °C is less than 0.5 mass %.) | D (The solubility of the compound to the solvent at 25 °C is less than 0.5 mass %.) |
| CCC1(CC)N=c2/c(=C3\C(=O)C(c4ccc5cccc6c5c4NC(CC)(CC)N6)=C3O)ccc3cccc(c23)N1 [Compound R-2, reference compound] | did not have sufficient solubility | 807 | C (The solubility of the compound to the solvent at 25 °C is 0.5 mass % to less than 1 mass %.) | C (The solubility of the compound to the solvent at 25 °C is 0.5 mass % to less than 1 mass %.) | B (The solubility of the compound to the solvent at 25 °C is 1 mass % to less than 2 mass %.) |
| CCCCCCCCCC(CCCCCCCCC)B1N=c2/c(=C3\C(=O)C(c4ccc5cccc6c5c4NB(C(CCCCCCCCC)CCCCCCCCC)N6)=C3O)ccc3cccc(c23)N1 [SQ-7] |  | 815 | B (The solubility of the compound to the solvent at 25 °C is 1 mass % to less than 2 mass %.) | B (The solubility of the compound to the solvent at 25 °C is 1 mass % to less than 2 mass %.) | B (The solubility of the compound to the solvent at 25 °C is 1 mass % to less than 2 mass %.) |
| CC(C)CCCC(C)CCc1ccc(B2N=c3/c(=C4\C(=O)C(c5ccc6cccc7c6c5NB(c5ccc(CCC(C)CCCC(C)C)cc5)N7)=C4O)ccc4cccc(c34)N2)cc1 (racemic) [SQ-2] |  | 823 | A (The solubility of the compound to the solvent at 25 °C is 2 mass % or greater.) | A (The solubility of the compound to the solvent at 25 °C is 2 mass % or greater.) | A (The solubility of the compound to the solvent at 25 °C is 2 mass % or greater.) |
